{
  "source": "ChEMBL document CHEMBL3045907",
  "about": "“Discovery and development of pyridalyl” (J Pestic Sci, 2012)",
  "key": {"[1]": {"experiment": "Toxicity in Cyprinidae (carp fish)", "format": "ADME, organism-based", "settings": "in vivo"}, "[2]": {"experiment": "Solubility of the compound in water", "format": "physicochemical", "settings": "buffer"}, "[3]": {"experiment": "Octanol-water partition co-efficient, log P of the compound at 20 degC", "format": "physicochemical"}, "[4]": {"experiment": "Acute toxicity in Rattus norvegicus (rat) compound administered intradermally", "format": "organism-based", "settings": "in vivo"}, "[5]": {"experiment": "Acute toxicity in Rattus norvegicus (rat) compound administered through inhalation", "format": "organism-based", "settings": "in vivo, inhaled or intranasal"}, "[6]": {"experiment": "Acute toxicity in po dosed Rattus norvegicus (rat)", "format": "organism-based", "settings": "in vivo"}},
  "data": [
    {"smiles": "FC(F)(F)c1ccc(OCCCOc2c(Cl)cc(OCC=C(Cl)Cl)cc2Cl)nc1", "note": "[PYRIDALYL]", "values": [
      {"measurement": "LC50", "setting": "[1]", "result": "> 10", "unit": "µg/mL"},
      {"measurement": "solubility", "setting": "[2]", "result": 0.15, "unit": "ppb"},
      {"measurement": "logP", "setting": "[3]", "result": 8.1},
      {"measurement": "LD50", "setting": "[4]", "result": "> 2000", "unit": "mg/kg"},
      {"measurement": "LC50", "setting": "[5]", "result": "> 2.01", "unit": "µg/mL"},
      {"measurement": "LD50", "setting": "[6]", "result": "> 5000", "unit": "mg/kg"}
    ]}
  ]
}
